Laboratory results as given in ChEMBL document CHEMBL1201862, “PubChem BioAssay data set” (2004).
Calls of active or inactive are those of the source.

Experiments:
[1] = target: G-protein coupled receptor 55 (Homo sapiens, UniProt Q9Y2T6); experiment: inhibition of LPI-stimulated GPR55 beta-arrestin translocation – imaging, U2OS, beta-arrestin-GFP, LPI agonist, primary screen (AID 2013); format: functional;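 further: antagonist potency measured as reduced agonist-driven arrestin aggregation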
Cytochrome P450 3A4 = Cytochrome P450 3A4 (Homo sapiens, UniProt P08684); conditions: Potency;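 further: confirmatory qHTS run detecting inhibitors and substrates of CYP3A4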
Sequence of Cytochrome P450 3A4 (P08684 whole entry): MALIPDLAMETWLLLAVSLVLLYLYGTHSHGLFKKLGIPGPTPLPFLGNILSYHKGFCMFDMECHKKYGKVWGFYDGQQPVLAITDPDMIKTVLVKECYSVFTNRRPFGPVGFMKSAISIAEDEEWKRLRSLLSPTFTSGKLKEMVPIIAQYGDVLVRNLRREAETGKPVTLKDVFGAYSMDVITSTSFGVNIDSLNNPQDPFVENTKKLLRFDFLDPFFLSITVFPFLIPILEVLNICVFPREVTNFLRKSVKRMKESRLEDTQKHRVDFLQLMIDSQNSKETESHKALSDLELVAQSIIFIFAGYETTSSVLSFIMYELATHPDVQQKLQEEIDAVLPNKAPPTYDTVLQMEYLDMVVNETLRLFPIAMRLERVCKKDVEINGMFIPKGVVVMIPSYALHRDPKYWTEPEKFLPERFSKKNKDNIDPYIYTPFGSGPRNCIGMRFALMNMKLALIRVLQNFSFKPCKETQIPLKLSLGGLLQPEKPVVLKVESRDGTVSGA

[2] = THP-1 cell cytotoxicity, dose response, cytotoxicity control for non-replicating M. tuberculosis project (AID 489025); format: functional
[3] = target: T1, Replicative DNA helicase DnaB (Mycobacterium tuberculosis, UniProt P9WMR3); experiment: DnaB intein splicing inhibitors, dose response, biochemical, cell-free fluorescence (AID 449749); format: functional
T1 sequence (P9WMR3 whole entry): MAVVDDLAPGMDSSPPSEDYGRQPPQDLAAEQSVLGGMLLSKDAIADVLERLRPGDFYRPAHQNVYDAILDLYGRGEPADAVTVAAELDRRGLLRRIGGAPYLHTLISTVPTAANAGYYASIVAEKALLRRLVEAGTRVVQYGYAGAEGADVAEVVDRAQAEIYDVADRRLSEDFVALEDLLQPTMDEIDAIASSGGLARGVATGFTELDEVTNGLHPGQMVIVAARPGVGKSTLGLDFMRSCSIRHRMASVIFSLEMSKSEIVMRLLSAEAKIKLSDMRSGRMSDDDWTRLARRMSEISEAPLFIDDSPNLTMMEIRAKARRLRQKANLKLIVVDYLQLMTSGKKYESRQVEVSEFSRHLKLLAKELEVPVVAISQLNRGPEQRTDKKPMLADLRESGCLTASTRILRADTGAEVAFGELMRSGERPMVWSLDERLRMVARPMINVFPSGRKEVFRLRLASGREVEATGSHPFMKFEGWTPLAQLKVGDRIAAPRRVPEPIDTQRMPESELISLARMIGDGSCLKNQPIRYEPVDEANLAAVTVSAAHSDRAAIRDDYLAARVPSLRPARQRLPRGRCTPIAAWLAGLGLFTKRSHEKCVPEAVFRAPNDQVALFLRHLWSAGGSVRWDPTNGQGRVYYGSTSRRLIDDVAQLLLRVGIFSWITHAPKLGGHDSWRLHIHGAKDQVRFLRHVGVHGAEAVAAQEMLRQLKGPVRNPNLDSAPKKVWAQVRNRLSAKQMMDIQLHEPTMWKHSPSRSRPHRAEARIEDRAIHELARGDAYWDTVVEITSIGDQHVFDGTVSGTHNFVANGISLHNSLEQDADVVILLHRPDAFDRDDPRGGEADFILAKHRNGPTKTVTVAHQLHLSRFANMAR

Protein RecA = target: T2, Protein RecA (Mycobacterium tuberculosis, UniProt P9WHJ3); experiment: Fluorescence Cell-Free Homogeneous Dose Retest to Identify Inhibitors of RecA-Intein Splicing Activity. [Related pubchem assays (depositor defined):AID2097, AID2223, AID489010, AID492950]; format: functional
T2 sequence (P9WHJ3 whole entry): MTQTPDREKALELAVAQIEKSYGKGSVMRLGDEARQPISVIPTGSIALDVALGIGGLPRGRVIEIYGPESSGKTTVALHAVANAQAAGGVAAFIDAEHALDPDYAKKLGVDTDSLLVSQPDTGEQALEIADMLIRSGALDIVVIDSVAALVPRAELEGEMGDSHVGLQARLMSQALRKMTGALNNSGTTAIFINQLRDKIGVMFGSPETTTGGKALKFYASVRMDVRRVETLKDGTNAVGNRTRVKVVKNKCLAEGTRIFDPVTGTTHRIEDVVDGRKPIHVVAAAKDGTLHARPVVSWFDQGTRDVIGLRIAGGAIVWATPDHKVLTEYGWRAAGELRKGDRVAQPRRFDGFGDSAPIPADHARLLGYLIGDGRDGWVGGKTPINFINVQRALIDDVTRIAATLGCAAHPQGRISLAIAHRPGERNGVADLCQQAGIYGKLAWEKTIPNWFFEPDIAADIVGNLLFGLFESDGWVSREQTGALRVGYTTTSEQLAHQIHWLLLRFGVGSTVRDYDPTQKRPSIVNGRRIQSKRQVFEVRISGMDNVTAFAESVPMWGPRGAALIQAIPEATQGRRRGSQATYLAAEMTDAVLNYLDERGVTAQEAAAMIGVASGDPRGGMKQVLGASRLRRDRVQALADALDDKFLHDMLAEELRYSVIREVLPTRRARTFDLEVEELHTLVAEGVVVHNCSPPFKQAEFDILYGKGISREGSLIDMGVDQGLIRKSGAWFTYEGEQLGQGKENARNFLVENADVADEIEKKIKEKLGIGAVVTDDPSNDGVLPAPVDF

Streptokinase A = target: T3, Streptokinase A (Streptococcus pyogenes serotype M1, UniProt P10520); experiment: viability-normalized secreted streptokinase activity reduction – plasminogen activation absorbance, OD405, dose response (AID 1914); format: functional, Streptococcus pyogenes M1 GAS;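 further: secreted streptokinase activity via plasminogen activation per viability signal from cell pellet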
T3 sequence (P10520 whole entry): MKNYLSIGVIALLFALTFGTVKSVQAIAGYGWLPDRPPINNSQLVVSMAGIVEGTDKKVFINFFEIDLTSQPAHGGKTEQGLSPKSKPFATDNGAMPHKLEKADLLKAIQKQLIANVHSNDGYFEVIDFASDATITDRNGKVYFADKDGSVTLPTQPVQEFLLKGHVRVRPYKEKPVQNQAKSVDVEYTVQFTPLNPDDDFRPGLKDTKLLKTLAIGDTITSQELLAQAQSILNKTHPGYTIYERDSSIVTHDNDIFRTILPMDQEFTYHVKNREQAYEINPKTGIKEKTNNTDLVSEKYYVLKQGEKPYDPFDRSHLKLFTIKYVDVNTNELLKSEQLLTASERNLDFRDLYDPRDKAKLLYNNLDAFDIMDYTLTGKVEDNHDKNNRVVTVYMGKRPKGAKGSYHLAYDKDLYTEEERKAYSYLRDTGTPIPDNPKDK

Streptococcus = experiment: GAS UMAA2166 growth inhibition – luminescence, BacTiterGlo, counter-screen for streptokinase expression inhibitor project, dose response (AID 1915); format: functional, organism-based;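 further: potency for reduction of bacterial viability or growth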
cells [4] = format: functional, cell-based
[5] = target: Luciferin 4-monooxygenase (Photinus pyralis, UniProt P08659); experiment: inhibition of purified Photinus pyralis luciferase – biochemical, luminescence, dose response (AID 1891)
Sequence of Luciferin 4-monooxygenase (P08659 whole entry): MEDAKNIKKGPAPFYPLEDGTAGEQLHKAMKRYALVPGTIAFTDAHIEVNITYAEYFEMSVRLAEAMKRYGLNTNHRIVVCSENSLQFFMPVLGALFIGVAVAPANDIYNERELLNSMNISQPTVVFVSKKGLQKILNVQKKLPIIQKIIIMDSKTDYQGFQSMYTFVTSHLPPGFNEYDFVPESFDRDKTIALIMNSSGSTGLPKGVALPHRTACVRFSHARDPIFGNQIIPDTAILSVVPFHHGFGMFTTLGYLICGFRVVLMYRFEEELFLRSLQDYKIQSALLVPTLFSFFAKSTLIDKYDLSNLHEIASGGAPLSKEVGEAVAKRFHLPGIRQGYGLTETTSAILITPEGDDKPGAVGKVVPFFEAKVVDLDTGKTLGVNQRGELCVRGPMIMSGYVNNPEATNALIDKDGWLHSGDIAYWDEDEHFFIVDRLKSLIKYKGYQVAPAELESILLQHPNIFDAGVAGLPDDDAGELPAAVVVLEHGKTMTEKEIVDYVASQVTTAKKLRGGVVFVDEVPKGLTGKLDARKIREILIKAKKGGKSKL

[6] = Luminescence Cell-Based Dose Confirmation HTS to Identify Inhibitors of Platelet Dense Granule Release. [Related pubchem assays: 1663 (Primary HTS), 1678 (Summary of Project)]; format: functional
cells [7] = format: functional, cell-based; remark: listed apart in the source
Genome polyprotein = Genome polyprotein (dengue virus type 2, UniProt P29990); experiment: flavivirus cap methylation enzyme inhibition – biochemical, confirmation dose response, primary screen (AID 588689); format: functional
Sequence of Genome polyprotein (P29990 2492-3391 limits assumed): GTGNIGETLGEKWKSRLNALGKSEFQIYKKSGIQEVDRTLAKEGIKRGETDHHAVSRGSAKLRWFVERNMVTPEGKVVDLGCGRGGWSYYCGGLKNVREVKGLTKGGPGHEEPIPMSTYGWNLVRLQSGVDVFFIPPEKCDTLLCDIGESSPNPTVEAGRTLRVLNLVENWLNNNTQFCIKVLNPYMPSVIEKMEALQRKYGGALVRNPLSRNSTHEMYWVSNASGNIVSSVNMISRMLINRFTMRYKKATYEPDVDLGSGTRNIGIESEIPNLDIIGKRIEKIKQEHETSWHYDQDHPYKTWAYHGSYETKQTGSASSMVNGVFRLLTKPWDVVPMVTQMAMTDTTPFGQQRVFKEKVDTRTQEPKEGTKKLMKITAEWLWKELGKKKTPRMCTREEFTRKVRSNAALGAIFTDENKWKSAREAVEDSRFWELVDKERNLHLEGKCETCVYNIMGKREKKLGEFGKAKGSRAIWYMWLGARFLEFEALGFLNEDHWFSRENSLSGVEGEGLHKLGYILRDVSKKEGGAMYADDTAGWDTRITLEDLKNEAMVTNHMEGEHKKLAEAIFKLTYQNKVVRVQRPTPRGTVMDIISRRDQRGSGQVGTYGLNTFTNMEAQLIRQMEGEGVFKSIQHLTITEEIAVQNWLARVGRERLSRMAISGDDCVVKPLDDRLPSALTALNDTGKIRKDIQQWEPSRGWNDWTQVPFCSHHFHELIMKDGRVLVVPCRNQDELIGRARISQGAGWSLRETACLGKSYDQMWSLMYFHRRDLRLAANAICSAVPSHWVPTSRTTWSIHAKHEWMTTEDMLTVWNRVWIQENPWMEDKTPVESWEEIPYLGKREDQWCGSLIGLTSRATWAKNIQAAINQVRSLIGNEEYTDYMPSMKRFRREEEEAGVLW

Fatty acid synthase [8] = target: T4, Fatty acid synthase (Homo sapiens, UniProt P49327); experiment: inhibition of human FAS-TE enzyme activity – biochemical, endpoint fluorescence intensity, uHTS hits, dose response (AID 624327); format: functional;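 further: fluorescence from hydrolysis of an O-methyl fluorescein acyl ester substrate by the enzyme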
T4 sequence (P49327 whole entry): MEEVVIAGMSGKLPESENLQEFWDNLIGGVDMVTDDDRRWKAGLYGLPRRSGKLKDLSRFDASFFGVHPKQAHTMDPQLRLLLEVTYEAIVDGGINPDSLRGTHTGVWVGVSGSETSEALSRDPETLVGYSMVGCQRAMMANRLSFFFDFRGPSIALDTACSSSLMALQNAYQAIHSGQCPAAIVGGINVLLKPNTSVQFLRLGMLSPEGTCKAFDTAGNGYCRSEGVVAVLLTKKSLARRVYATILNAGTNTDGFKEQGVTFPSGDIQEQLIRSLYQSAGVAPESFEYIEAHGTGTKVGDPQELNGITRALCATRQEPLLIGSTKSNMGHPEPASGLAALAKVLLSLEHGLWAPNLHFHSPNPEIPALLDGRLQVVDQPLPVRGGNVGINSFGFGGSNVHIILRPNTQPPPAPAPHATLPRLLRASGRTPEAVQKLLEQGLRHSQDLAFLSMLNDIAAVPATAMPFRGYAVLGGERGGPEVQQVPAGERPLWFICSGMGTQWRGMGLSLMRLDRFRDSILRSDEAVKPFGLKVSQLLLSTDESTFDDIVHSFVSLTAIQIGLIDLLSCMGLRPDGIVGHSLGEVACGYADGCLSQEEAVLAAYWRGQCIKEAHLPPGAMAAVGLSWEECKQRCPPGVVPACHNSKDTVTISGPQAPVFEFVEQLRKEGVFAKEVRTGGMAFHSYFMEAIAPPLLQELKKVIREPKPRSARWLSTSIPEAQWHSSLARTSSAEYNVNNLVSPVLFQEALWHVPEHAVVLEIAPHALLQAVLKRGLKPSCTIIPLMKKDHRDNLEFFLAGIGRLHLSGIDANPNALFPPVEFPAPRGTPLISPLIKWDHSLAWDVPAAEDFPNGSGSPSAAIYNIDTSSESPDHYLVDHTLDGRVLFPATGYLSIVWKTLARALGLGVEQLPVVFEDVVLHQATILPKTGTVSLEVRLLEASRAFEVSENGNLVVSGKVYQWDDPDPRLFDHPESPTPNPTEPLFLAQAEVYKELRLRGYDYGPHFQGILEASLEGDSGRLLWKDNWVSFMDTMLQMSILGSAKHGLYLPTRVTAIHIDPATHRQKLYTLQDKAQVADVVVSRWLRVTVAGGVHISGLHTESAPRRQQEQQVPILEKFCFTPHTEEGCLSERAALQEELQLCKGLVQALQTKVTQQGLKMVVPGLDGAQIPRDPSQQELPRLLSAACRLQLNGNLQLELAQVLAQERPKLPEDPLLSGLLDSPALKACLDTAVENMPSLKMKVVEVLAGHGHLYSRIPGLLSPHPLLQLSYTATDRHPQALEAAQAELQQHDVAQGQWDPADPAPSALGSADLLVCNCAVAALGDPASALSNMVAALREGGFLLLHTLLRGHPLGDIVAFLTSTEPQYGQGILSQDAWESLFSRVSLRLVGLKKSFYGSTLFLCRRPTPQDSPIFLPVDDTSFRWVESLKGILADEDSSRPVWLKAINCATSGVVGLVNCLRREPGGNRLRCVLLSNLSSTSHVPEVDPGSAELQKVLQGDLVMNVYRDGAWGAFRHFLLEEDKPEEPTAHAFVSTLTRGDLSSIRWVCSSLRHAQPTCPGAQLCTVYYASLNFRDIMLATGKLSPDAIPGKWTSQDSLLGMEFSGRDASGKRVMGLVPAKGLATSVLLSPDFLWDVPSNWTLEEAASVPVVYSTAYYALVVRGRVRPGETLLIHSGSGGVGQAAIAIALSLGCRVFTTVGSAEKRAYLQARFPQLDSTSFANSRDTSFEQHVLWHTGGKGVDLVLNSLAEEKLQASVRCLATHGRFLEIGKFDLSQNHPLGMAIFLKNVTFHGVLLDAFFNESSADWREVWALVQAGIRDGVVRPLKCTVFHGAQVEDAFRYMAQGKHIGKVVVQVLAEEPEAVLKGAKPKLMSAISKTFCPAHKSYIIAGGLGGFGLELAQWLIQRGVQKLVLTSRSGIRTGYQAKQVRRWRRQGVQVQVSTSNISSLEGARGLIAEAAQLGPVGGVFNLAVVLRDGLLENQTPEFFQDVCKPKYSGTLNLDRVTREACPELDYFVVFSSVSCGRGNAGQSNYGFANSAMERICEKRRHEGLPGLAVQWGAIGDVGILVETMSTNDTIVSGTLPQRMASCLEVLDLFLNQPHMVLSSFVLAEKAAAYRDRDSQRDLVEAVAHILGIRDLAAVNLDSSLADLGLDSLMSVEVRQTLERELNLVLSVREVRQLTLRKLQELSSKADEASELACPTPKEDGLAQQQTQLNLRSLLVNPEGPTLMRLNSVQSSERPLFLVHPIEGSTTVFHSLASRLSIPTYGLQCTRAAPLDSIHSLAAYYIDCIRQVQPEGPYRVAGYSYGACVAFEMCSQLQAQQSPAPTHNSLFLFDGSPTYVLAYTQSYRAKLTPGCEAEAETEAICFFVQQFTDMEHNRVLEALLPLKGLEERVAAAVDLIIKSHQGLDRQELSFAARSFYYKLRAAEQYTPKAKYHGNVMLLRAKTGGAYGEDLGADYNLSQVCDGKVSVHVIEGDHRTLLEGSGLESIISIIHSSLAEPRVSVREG

Fatty acid synthase [9] = target: T4, Fatty acid synthase; experiment: inhibition of human FAS-TE enzyme activity – biochemical, kinetic fluorescence intensity, dose response (AID 624326); format: functional;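 further: rate of fluorescence rise from hydrolysis of a fluorogenic O-methyl fluorescein ester substrate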
[10] = viability of PTEN-deleted HCT116 cells – cell-based, HCT116 PTEN knockout, dose response (AID 1047); format: functional;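 further: HCT116 colon tumor cells with PTEN knocked out; cells exposed to compound for 60 hours before readout; potency for loss of cell viability measured by luminescence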
[11] = viability of HCT116 lacking mutant beta-catenin – cell-based, human colon tumor, dose response (AID 1045); format: functional;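 further: HCT116 colon tumor cells with beta catenin knocked out; cells exposed to compound for 60 hours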
[12] = target: T5, Heat shock factor protein 1 (Mus musculus, UniProt P38532); experiment: enhancement of HSF1-driven luciferase signal – cell-based, NIH3T3, luminescence, dose retest, confirmation (AID 435004); format: functional;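 further: stress induced by proteasome inhibitor MG132 added 30 min after compound; luciferase reporter driven by HSF1 response element in NIH3T3 cells; actives raise luminescence as potentiators of the MG132 stress response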
T5 sequence (P38532 whole entry): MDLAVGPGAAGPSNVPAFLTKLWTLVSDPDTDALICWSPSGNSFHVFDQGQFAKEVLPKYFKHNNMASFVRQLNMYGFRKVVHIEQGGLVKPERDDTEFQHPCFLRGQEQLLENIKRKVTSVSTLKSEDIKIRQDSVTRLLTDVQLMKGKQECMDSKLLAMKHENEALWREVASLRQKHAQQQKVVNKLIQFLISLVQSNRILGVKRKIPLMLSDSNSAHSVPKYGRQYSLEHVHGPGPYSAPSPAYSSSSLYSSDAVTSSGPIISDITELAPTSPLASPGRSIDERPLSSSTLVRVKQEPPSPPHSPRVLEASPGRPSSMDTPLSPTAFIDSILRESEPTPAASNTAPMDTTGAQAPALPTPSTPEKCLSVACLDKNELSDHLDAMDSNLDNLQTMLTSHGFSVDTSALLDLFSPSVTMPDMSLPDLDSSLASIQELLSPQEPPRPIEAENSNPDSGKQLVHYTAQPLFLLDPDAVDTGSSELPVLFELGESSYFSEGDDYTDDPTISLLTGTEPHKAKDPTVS

[13] = target: T6, Corticotropin-releasing factor receptor 2/Corticotropin-releasing factor-binding protein (Homo sapiens, UniProt P24387+Q13324); experiment: Dose Response confirmation of uHTS hits for small molecule antagonists of the CRF-binding protein and CRF-R2 receptor complex.; format: functional; conditions: read-out: IC50_Mean
T6 sequence (Q13324 whole entry): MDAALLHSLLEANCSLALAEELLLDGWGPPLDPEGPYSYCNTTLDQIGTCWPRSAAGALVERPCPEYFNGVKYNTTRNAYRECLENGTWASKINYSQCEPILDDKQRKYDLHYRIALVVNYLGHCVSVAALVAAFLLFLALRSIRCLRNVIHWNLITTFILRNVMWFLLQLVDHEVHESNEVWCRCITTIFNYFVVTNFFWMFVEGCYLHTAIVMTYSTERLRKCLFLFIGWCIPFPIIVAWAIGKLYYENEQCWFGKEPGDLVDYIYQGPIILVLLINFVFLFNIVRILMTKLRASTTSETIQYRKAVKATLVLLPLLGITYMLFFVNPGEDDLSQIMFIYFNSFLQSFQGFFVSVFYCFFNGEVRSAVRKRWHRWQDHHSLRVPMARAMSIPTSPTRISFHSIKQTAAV
T6 sequence (P24387 whole entry): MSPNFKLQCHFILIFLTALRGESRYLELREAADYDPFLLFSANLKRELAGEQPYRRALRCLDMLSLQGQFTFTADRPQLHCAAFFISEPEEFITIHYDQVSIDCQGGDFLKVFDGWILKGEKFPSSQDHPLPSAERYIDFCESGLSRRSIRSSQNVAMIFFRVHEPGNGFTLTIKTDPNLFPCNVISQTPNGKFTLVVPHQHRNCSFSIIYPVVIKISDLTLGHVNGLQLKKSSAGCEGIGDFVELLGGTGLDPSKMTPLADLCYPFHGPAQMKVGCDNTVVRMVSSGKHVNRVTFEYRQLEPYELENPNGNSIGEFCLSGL

[14] = target: T6, Corticotropin-releasing factor receptor 2/Corticotropin-releasing factor-binding protein; experiment: activators of CRF receptor 2 with binding protein – uHTS hits, confirmation (AID 602473); format: functional; conditions: read-out: EC50_Mean
[15] = Luminescence Cell-Based Dose Confirmation HTS to Identify Activators of 5'UTR Stem-Loop Driven Alpha-Synuclein mRNA Translation in H4 Neuroglioblastoma Cells. [Related pubchem assays: 1829 (Project Summary), 1814 (Primary HTS)]; format: functional
[16] = Luminescence Cell-Based Dose Response HTS to Identify Activators of Luciferase Translation or Activity in H4 […] Cells. [Related pubchem assays: 1829 (Project Summary), 1814 (Primary HTS)]; format: functional
H4 = experiment: Luminescence Cell-Based Dose Response HTS to Identify Activators of 5'UTR Stem-Loop Driven Prion Protein mRNA Translation in H4 Neuroglioblastoma Cells. [Related pubchem assays: 1829 (Project Summary), 1814 (Primary HTS)]; format: functional; conditions: Homo sapiens

Sequence of G-protein coupled receptor 55 (Q9Y2T6 whole entry): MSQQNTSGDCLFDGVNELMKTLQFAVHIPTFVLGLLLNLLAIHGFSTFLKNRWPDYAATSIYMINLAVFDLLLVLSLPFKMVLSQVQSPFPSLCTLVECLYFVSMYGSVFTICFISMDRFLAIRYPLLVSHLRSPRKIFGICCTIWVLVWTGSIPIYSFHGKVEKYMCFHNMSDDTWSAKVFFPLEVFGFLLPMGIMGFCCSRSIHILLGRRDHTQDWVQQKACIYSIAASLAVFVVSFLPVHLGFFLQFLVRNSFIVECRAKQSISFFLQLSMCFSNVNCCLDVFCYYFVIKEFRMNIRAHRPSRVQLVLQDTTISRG

## COc1ccc(CNCc2cc3c(C(C)(C)C)nn(-c4ccccc4)c3[nH]c2=O)cc1
[1]
  IC50: 2.18 µM (active)

## CCCn1c(-c2ccc(F)cc2)nc2c(N(C)CCN(C)C)nc(C)nc21
Cytochrome P450 3A4
  AC50: 25.1 µM (inconclusive)

## O=S(=O)(Nc1ccc(O)c2ccccc12)c1ccc(F)cc1
[2]
  CC50: > 40 µM (active)
[3]
  AC50: 0.214 µM (active)
Protein RecA
  EC50: 0.0466 µM (active)

## COC(=O)[C@@]1(C)C[C@@H]1[C@@H](NC(=O)[C@@]1(C)C[C@@H]1[C@@H](NC(=O)[C@@]1(C)C[C@@H]1[C@@H](NC(=O)[C@@]1(C)C[C@@H]1[C@@H](NC(=O)OCc1ccccc1)c1ccccc1)c1ccccc1)c1ccccc1)c1ccccc1
Cytochrome P450 3A4
  AC50: 0.2 µM (inconclusive)

## COC(=O)c1c(NC(NC(=O)C(C)(C)C)C(Cl)(Cl)Cl)sc2c1CCC2 (stereo unspecified)
Streptokinase A
  EC50: 2.8 µM (active)
[1]
  IC50: 2.01 µM (active)
Streptococcus
  EC50: 20.3 µM (active)

## COc1c(O)cc2c(-c3ccccc3)cc(=O)oc2c1OC [KUHLMANNIN]
Cytochrome P450 3A4
  AC50: 31.6 µM (inconclusive)

## Cc1cc(S(=O)(=O)ON2C(=O)c3ccccc3C2=O)ccc1F
Cells [4]
  EC50: > 350 µM (not active)
[5]
  EC50: > 112 µM (not active)
[6]
  EC50: > 112 µM (not active)
Cells [7]
  EC50: > 350 µM (not active)
Genome polyprotein
  IC50: > 100 µM (active)
Fatty acid synthase [8]
  IC50: 2.43 µM (active)
Fatty acid synthase [9]
  IC50: 2.07 µM (active)

## CCOC(=O)C(C)(C)N(Cc1ccc(C)cc1)S(=O)(=O)c1ccc(Cl)c([N+](=O)[O-])c1
[1]
  IC50: 3.61 µM (active)
[10]
  EC50: 17.7 µM (active)
[11]
  EC50: 15.3 µM (active)
[12]
  EC50: 20.1 µM (active)
[13]
  IC50: > 47.1 µM (inactive)
[14]
  EC50: > 53 µM (inactive)

## N=C(NOC(=O)Cc1cccs1)c1ccccc1
[15]
  EC50: 3.81 µM (active)
[16]
  EC50: 11.1 µM (active)
Cells [4]
  EC50: > 350 µM (not active)
H4
  EC50: 9.96 µM (active)
Cells [7]
  EC50: 20.7 µM (active)

## CC1(C)C2(Cl)C(Cl)C(Cl)C(Cl)(C(Cl)Cl)C1(Cl)C2Cl (stereo unspecified) [STROBANE]
Cytochrome P450 3A4
  AC50: 15.8 µM (inconclusive)

## COC(=O)c1ccc(CN2[C@H](C(=O)OC)C[C@@]3(O)[C@H](O)[C@H](O)[C@H](O)C[C@@H]23)cc1
Cytochrome P450 3A4
  AC50: 12.6 µM (inconclusive)

## CCCCC(CC)COCCCN (stereo unspecified)
Cytochrome P450 3A4
  AC50: 31.6 µM (inconclusive)
